Measurements reported in patent US6737383B1, “Herbicidal oxadiazolidines” (priority 1999, dated 2004).

How the values were obtained:
sugar beet = experiment: Test B pre/postemergence sugar beet; format: in vivo, Beta vulgaris
Outline: (§1)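 Herbicidal effect was estimated by eye on a ten-point control scale after plants spent twelve to sixteen days in a greenhouse following soil or foliar treatment. Foliar sprays targeted plants at one to four leaves; all doses were formulated in a non-phytotoxic solvent with surfactant.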

cocklebur = experiment: Test B pre/postemergence cocklebur; format: in vivo, Xanthium strumarium
Outline: as §1

surinam grass = experiment: Test B pre/postemergence surinam grass; format: in vivo, Brachiaria decumbens
Outline: as §1

smallflower flatsedge = experiment: Test B flood test smallflower flatsedge; format: in vivo, Cyperus difformis
Outline: (§2)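 Plants were grown to the 2-leaf stage before treatment with test chemical, then held in a greenhouse for twelve to sixteen days. Injury was visually rated against untreated controls on a 0–10 scale, where 0 is no effect and 10 is complete control.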

velvetleaf = experiment: Test B pre/postemergence velvetleaf; format: in vivo, Abutilon theophrasti
Outline: as §1

rice = experiment: Test B flood test rice; format: in vivo, Oryza sativa
Outline: as §2

morningglory = experiment: Test B pre/postemergence morningglory; format: in vivo, Ipomoea hederacea
Outline: as §1

pigweed = experiment: Test B pre/postemergence pigweed; format: in vivo, Amaranthus retroflexus
Outline: as §1

rape = experiment: Test B pre/postemergence rape; format: in vivo, Brassica napus
Outline: as §1

wheat = experiment: Test B pre/postemergence wheat; format: in vivo, Triticum aestivum
Outline: as §1

corn = experiment: Test B pre/postemergence corn; format: in vivo, Zea mays
Outline: as §1

soybean = experiment: Test B pre/postemergence soybean; format: in vivo, Glycine max
Outline: as §1

giant foxtail = experiment: Test B pre/postemergence giant foxtail; format: in vivo, Setaria faberii
Outline: as §1

duck salad = experiment: Test B flood test duck salad; format: in vivo, Heteranthera limosa
Outline: as §2

wild oat = experiment: Test B pre/postemergence wild oat; format: in vivo, Avena fatua
Outline: as §1

bamyardgrass = experiment: Test B flood test barnyardgrass; format: in vivo, Echinochloa crus-galli
Outline: as §2

[1] = Postemergence, Rate 250 g/ha, scale 0 to 10
[2] = Postemergence, Rate 500 g/ha, scale of 0 to 10 where 0 is no effect and 10 is complete control
[3] = Preemergence, Rate 62 g/ha, scale 0 to 10 (0 no effect, 10 complete control)
[4] = Preemergence, Rate 125 g/ha, scale of 0 to 10 where 0 is no effect and 10 is complete control
[5] = Preemergence, Rate 250 g/ha, scale 0 to 10, 0 is no effect, 10 is complete control
[6] = Preemergence, Rate 500 g/ha, scale 0 to 10, 0 is no effect, 10 is complete control
[7] = Rate 125 g/ha, Postemergence, scale 0 to 10, 0 is no effect, 10 is complete control
[8] = Rate 62 g/ha, Postemergence, scale of 0 to 10 where 0 is no effect and 10 is complete control
[9] = Postemergence block (flood test species), Rate 250 g/ha, scale 0 to 10
[10] = Postemergence section (flood test species), Rate 500 g/ha, scale of 0 to 10 where 0 is no effect and 10 is complete control
[11] = Rate 125 g/ha, Postemergence section (flood test species), scale 0 to 10, 0 is no effect, 10 is complete control
[12] = Rate 62 g/ha, Postemergence (flood test species), scale of 0 to 10 where 0 is no effect and 10 is complete control

With `CC(C)N(C(=O)n1oc(=O)n(CC#N)c1=O)c1ccccc1` [Compound 434] the “Sugarbeets plant response rating” value (sugar beet; [1]) was 0, the “Sugarbeets plant response rating” value (sugar beet; [2]) was 0 and the “Plant response rating, Sugarbeets” value (sugar beet; [3]) was 0. The “Plant response rating, Sugarbeets” value (sugar beet; [4]) was 0, the “Sugarbeets plant response rating” value (sugar beet; [5]) was 0 and the “Sugarbeets plant response rating” value (sugar beet; [6]) was 0. For the same molecule, the “Sugarbeets plant response rating” value (sugar beet; [7]) was 0, the “Cocklebur plant response rating” value (cocklebur; [1]) was 0 and the “Cocklebur plant response rating” value (cocklebur; [2]) was 0. The “Plant response rating, Cocklebur” value (cocklebur; [3]) was 0, the “Plant response rating, Cocklebur” value (cocklebur; [4]) was 0 and the “Cocklebur plant response rating” value (cocklebur; [5]) was 0. For the same molecule, the “Cocklebur plant response rating” value (cocklebur; [6]) was 0, the “Cocklebur plant response rating” value (cocklebur; [8]) was 0 and the “Cocklebur plant response rating” value (cocklebur; [7]) was 0. The “B. signalgrass plant response rating” value (surinam grass; Postemergence, Rate 250 g/ha, scale 0 to 10, 0 no effect, 10 complete control) was 0, the “B. signalgrass plant response rating” value (surinam grass; [2]) was 0 and the “Plant response rating, B. signalgrass” value (surinam grass; [3]) was 0. The “Plant response rating, B. signalgrass” value (surinam grass; [4]) was 0, the “B. signalgrass plant response rating” value (surinam grass; [5]) was 0 and the “B. signalgrass plant response rating” value (surinam grass; [6]) was 0. For the same molecule, the “B. signalgrass plant response rating” value (surinam grass; [8]) was 0, the “B. signalgrass plant response rating” value (surinam grass; [7]) was 0 and the “S. Flatsedge plant response rating” value (smallflower flatsedge; [9]) was 0. The “S. Flatsedge plant response rating” value (smallflower flatsedge; [10]) was 0, the “S. Flatsedge plant response rating” value (smallflower flatsedge; [11]) was 0 and the “Velvetleaf plant response rating” value (velvetleaf; [1]) was 0. For the same molecule, the “Velvetleaf plant response rating” value (velvetleaf; [2]) was 0, the “Plant response rating, Velvetleaf” value (velvetleaf; [3]) was 0 and the “Plant response rating, Velvetleaf” value (velvetleaf; [4]) was 0. The “Velvetleaf plant response rating” value (velvetleaf; [5]) was 0, the “Velvetleaf plant response rating” value (velvetleaf; [6]) was 0 and the “Velvetleaf plant response rating” value (velvetleaf; [7]) was 0. For the same molecule, the “Rice plant response rating” value (rice; [9]) was 0, the “Rice plant response rating” value (rice; [10]) was 0 and the “Rice plant response rating” value (rice; [11]) was 0. The “Morningglory plant response rating” value (morningglory; [1]) was 1, the “Morningglory plant response rating” value (morningglory; [2]) was 1 and the “Plant response rating, Morningglory” value (morningglory; [3]) was 0. The “Plant response rating, Morningglory” value (morningglory; [4]) was 0, the “Morningglory plant response rating” value (morningglory; [5]) was 0 and the “Morningglory plant response rating” value (morningglory; [6]) was 0. For the same molecule, the “Morningglory plant response rating” value (morningglory; [7]) was 0, the “Redroot pigweed plant response rating” value (pigweed; [1]) was 0 and the “Redroot pigweed plant response rating” value (pigweed; [2]) was 0. The “Plant response rating, Redroot pigweed” value (pigweed; [3]) was 0, the “Plant response rating, Redroot pigweed” value (pigweed; [4]) was 0 and the “Redroot pigweed plant response rating” value (pigweed; [5]) was 0. The “Redroot pigweed plant response rating” value (pigweed; [6]) was 4, the “Redroot pigweed plant response rating” value (pigweed; [7]) was 0 and the “Rape plant response rating” value (rape; [1]) was 0. For the same molecule, the “Rape plant response rating” value (rape; [2]) was 0, the “Plant response rating, Rape” value (rape; [3]) was 0 and the “Plant response rating, Rape” value (rape; [4]) was 0. For the same molecule, the “Rape plant response rating” value (rape; [5]) was 0, the “Rape plant response rating” value (rape; [6]) was 0 and the “Rape plant response rating” value (rape; [7]) was 0. The “Wheat plant response rating” value (wheat; [1]) was 0, the “Wheat plant response rating” value (wheat; [2]) was 0 and the “Plant response rating, Wheat” value (wheat; [3]) was 0. The “Plant response rating, Wheat” value (wheat; [4]) was 0, the “Wheat plant response rating” value (wheat; [5]) was 0 and the “Wheat plant response rating” value (wheat; [6]) was 0. For the same molecule, the “Wheat plant response rating” value (wheat; [7]) was 0, the “Corn plant response rating” value (corn; [1]) was 0 and the “Corn plant response rating” value (corn; [2]) was 0. For the same molecule, the “Plant response rating, Corn” value (corn; [3]) was 0, the “Plant response rating, Corn” value (corn; [4]) was 0 and the “Corn plant response rating” value (corn; [5]) was 0. For the same molecule, the “Corn plant response rating” value (corn; [6]) was 0, the “Corn plant response rating” value (corn; [8]) was 0 and the “Corn plant response rating” value (corn; [7]) was 0. For the same molecule, the “Soybean plant response rating” value (soybean; [1]) was 1, the “Soybean plant response rating” value (soybean; [2]) was 1 and the “Plant response rating, Soybean” value (soybean; [3]) was 0. For the same molecule, the “Plant response rating, Soybean” value (soybean; [4]) was 0, the “Soybean plant response rating” value (soybean; [5]) was 0 and the “Soybean plant response rating” value (soybean; [6]) was 0. The “Soybean plant response rating” value (soybean; [7]) was 0, the “Giant foxtail plant response rating” value (giant foxtail; [1]) was 1 and the “Giant foxtail plant response rating” value (giant foxtail; [2]) was 4. For the same molecule, the “Plant response rating, Giant foxtail” value (giant foxtail; [3]) was 0, the “Plant response rating, Giant foxtail” value (giant foxtail; [4]) was 0 and the “Giant foxtail plant response rating” value (giant foxtail; [5]) was 0. The “Giant foxtail plant response rating” value (giant foxtail; [6]) was 2, the “Giant foxtail plant response rating” value (giant foxtail; [8]) was 0 and the “Giant foxtail plant response rating” value (giant foxtail; [7]) was 0. The “Ducksalad plant response rating” value (duck salad; [9]) was 0, the “Ducksalad plant response rating” value (duck salad; [10]) was 0 and the “Ducksalad plant response rating” value (duck salad; [12]) was 0. The “Ducksalad plant response rating” value (duck salad; [11]) was 0, the “Wild oats plant response rating” value (wild oat; [1]) was 0 and the “Wild oats plant response rating” value (wild oat; [2]) was 0. The “Plant response rating, Wild oats” value (wild oat; [3]) was 0, the “Plant response rating, Wild oats” value (wild oat; [4]) was 0 and the “Wild oats plant response rating” value (wild oat; [5]) was 0. The “Wild oats plant response rating” value (wild oat; [6]) was 0, the “Wild oats plant response rating” value (wild oat; [7]) was 0 and the “Barnyardgrass plant response rating” value (bamyardgrass; [9]) was 0. The “Barnyardgrass plant response rating” value (bamyardgrass; [10]) was 0, the “Barnyardgrass plant response rating” value (bamyardgrass; [12]) was 0 and the “Barnyardgrass plant response rating” value (bamyardgrass; [11]) was 0.
